Patent publication US12691069B2, “Synthetic glycolipids and glycoliposome compositions : suitable for cargo delivery to the central nervous system” (KORANEX CAPITAL, priority 2022, dated 2026)
Marks after values point to notes of the source that are not given here.

How the values were obtained:
[1] = Dynamic light scattering (DLS) of MGs; format: physicochemical; conditions: At 3.2 mg/mL THF; for Diameter (nm): injected in nanopure water
Procedure: The self-assembly of the glycoliposomes into vesicles and liposomes involved the injection method of their solution in a water miscible solvent such as ethanol or tetrahydrofuran (THF) into water or buffer. […] The resulting assemblies were first analyzed by dynamic light scattering (DLS) for size, polydispersity (PDI), and stability in time. For liposome size determination, solutions of the glycolipids (3.5 mg) in THF (1.1 mL) were then diluted in distilled water (2.2 mL) to provide final concentrations of 1.06 mg/mL. Particle size distributions were measured in water using a Zetasizer® Nano S90 from Malvern Instruments (UK) equipped with 4 mW He—Ne laser 633 nm and avalanche photodiode positioned at 90° to the beam and temperature-controlled cuvette holder. Instrument parameters were determined automatically along with measurement times. Experiments were performed in triplicate at 25° C.
Different solutions of 12a (C8), 12c (C12), 12d (C14), 12e (C16), 22c (C12), 22d (C14), 22e (C16) in THF and EtOH were prepared from 0.5 mg/mL to 10 mg/mL. 100 μL of these preparations were injected in a constant 2 mL of nanopure water followed by 5 seconds of vortexing, and analyzed by DLS, to determine the diameter size of the MGs, as shown in Table 2.

[2] = In vivo Dynantin distribution after intranasal treatment; conditions: intranasal Dynantin 2 μg, 20 minutes
[3] = tested on: HeLa cells; experiment: Nile Red cellular uptake, HeLa; format: cell-based, human
Procedure: Murine dendritic cells JAWSII (ATCC® CRL-11904™) were grown in RPMI-1640 medium (HyClone, Logan UT) supplemented with 8% FBS (Gibco, Grand Island NY), 100 units/ml penicillin/streptomycin (HyClone, Logan UT) and 5 ng/mL of GM-CSF (Invitrogen, Frederick MD) at 37° C. and 5% CO2. Once confluent, cells were collected using 0.25% Trypsin-EDTA (Gibco, Grand Island NY). Murine macrophage cells J774A.1 (ATCC® TIB-67™) and human malignant cells HeLa (ATCC® CCL-2™; Cederlane, Burlington, ON, Canada) were grown […] (DMEM) high glucose (HyClone, Logan, UT) supplemented with 10% FBS and 100 units/ml penicillin/streptomycin at 37° C. and 5% CO2. Once confluent, cells were collected using a cell scraper. Viability was assessed prior to experiments by Trypan Blue (Gibco, Grand Island NY) exclusion where the viability was >90%. Cells were seeded at 3×10^5 cells in 300 μL in a 96 multi-well plate and left untreated or were treated with 10 μg/mL of empty liposomes MG12d or MGC12, 1 μg/mL of Nile Red (Sigma, St-Louis MO), or 1 μg/mL of Nile Red encapsulated in 10 μg/mL of MG12d or MGC12. […] Mean fluorescence intensity was analysed using the Cytomics FC-500 flow cytometer (Beckman Coulter, Fullerton CA) using the FL3 channel where […] were measured. Data was analyzed using the CXP Analysis Software. […]

6-bis(tetradecyloxy)benzamido-N-hexyl α-D-mannopyranoside [12d]
Polydispersity Index (PDI) [1]: 0.040 | Diameter (nm) [1]: 286 ^a nm

CCCCCCCCOc1ccc(C(=O)NCCCCCCO[C@H]2O[C@H](CO)[C@@H](O)[C@H](O)[C@@H]2O)cc1OCCCCCCCC [12a, 6-Bis(octacyloxy)benzamido-N-hexyl α-D-mannopyranoside]
Polydispersity Index (PDI) [1]: 0.178 | Diameter (nm) [1]: 300^a nm

CCCCCCCCCCCCOc1ccc(C(=O)NCCCCCCO[C@H]2O[C@H](CO)[C@@H](O)[C@H](O)[C@@H]2O)cc1OCCCCCCCCCCCC [12c, 6-Bis(dodecyloxy)benzamido-N-hexyl α-D-mannopyranoside]
Polydispersity Index (PDI) [1]: 0.202 | Diameter (nm) [1]: 267 ^a nm

CC[C@H](C)[C@H](NC(=O)[C@H](CCCN=C(N)N)NC(=O)[C@H](CCCN=C(N)N)NC(=O)[C@H](CC(C)C)NC(=O)[C@H](Cc1ccccc1)NC(=O)CNC(=O)CNC(=O)[C@@H](C)Cc1c(C)cc(O)cc1C)C(=O)N[C@@H](CCCN=C(N)N)C(=O)N1CCC[C@H]1C(=O)N[C@@H](CCCCN)C(N)=O [Dynantin]
Brain (%), percentage of total dose recovered ([2]; brain): 8.15 ± 3.06% | Dynantin levels in the brain ([2]; brain): detectable levels | Lung (%), percentage of total dose recovered ([2]; lung): 4.93 ± 0.89% | Sera (%), percentage of total dose recovered ([2]; sera): 21.66 ± 3.99%

CCN(CC)c1ccc2nc3c4ccccc4c(=O)cc-3oc2c1 [Nile Red]
Nile Red uptake / staining [3]: no staining
